Assay results taken from ChEMBL document CHEMBL1125158, “A model for compounds active against human rhinovirus-14 based on X-ray crystallography data” (1990).
Converted amounts (≈) assume the structure as drawn. The source made the active and inactive calls. The rule behind the calls is not given here.

What follows are compounds tested on rhinovirus B14 (assay: In vitro minimum inhibitory concentration for the inhibition of human rhinovirus-14 (HRV-14) replication by binding to viral capsid; NA= inactive at the 10 umol.). Details: not given.
Type: functional, organism-based

Q: For `Cc1cc(CCCCCOc2ccc(C3=NCCO3)cc2N(C)C)on1`, which MIC is on record?
A: inactive

Q: `Cc1cc(CCCCCOc2c(Cl)cc(-c3cnco3)cc2Cl)on1` was tested. Which MIC did it give?
A: inactive

Q: With `Cc1cc(CCCCCOc2c(C)cc(-c3ccco3)cc2C)on1` as the compound, how does the MIC read?
A: inactive

Q: Which MIC does the source give for `Cc1cc(CCCCCOc2c(Cl)cc(-c3ccoc3)cc2Cl)on1` here?
A: inactive

Q: With `Cc1cc(CCCCCOc2c(C)cc(-c3ccoc3)cc2C)on1` as the compound, how does the MIC read?
A: inactive

Q: For `CCc1cc(C2=NCCO2)cc(C)c1OCCCCCc1cc(C)no1`, which MIC is on record?
A: inactive

Q: `Cc1cc(CCCCCOc2c(Cl)cc(C3=NCCO3)cc2C(C)(C)C)on1` was tested. Which MIC did it give?
A: inactive

Each compound was assayed on rhinovirus B14 (assay: In vitro minimum inhibitory concentration for the inhibition of human rhinovirus-14 replication.). Details: not given.
Type: functional

Q: Which MIC does the source give for `Cc1cc(CCCCOc2ccc(C3=NCCO3)cc2)on1` here?
A: inactive

Same assay, conditions: Rhinovirus B

Q: Which MIC does the source give for `Cc1cc(CCCCCOc2ccc(-c3nc(C)c(C)s3)cc2)on1` here?
A: 0.14 µM (≈ 0.0499 µg/mL)

Q: Which MIC does the source give for `OCCOCOCc1cc(CCCCCCCOc2c(Cl)cc(C3=NCCO3)cc2Cl)on1` here?
A: 0.06 µM (≈ 0.0301 µg/mL)

Q: How did the MIC turn out when `Cc1cc(CCCCCCCOc2ccc(C3=NCCO3)cc2)on1` [DISOXARIL] was run?
A: 0.41 µM (≈ 0.14 µg/mL)

Q: For `Cc1cc(CCCCCCCOc2ccc(C3=NC(CO)CO3)cc2)on1` (centres undefined), which MIC is on record?
A: 0.16 µM (≈ 0.0596 µg/mL)

Q: `CCCc1cc(CCCCCOc2ccc(C3=NCCO3)cc2)on1` was tested. Which MIC did it give?
A: 0.16 µM (≈ 0.0548 µg/mL)

Q: How did the MIC turn out when `Cc1cc(CCCCCCOc2ccc(C3=NCCO3)cc2)on1` was run?
A: 2.9 µM (≈ 0.952 µg/mL)

Q: For `Cc1cc(CCCCCOc2ccc(C3=NC(C)CO3)cc2)on1` (centres undefined), which MIC is on record?
A: 0.7 µM (≈ 0.23 µg/mL)

Q: With `Cc1cc(CCCCCCCOc2ccc(C3=NC(C)CO3)cc2Cl)on1` (centres undefined) as the compound, how does the MIC read?
A: 2.4 µM (≈ 0.938 µg/mL)

Q: `Cc1cc(CCCCCOc2ccc(C3=NCCO3)cc2)on1` was tested. Which MIC did it give?
A: 0.51 µM (≈ 0.16 µg/mL)

Q: Which MIC does the source give for `CCCCc1cc(CCCCCOc2ccc(C3=NCCO3)cc2)on1` here?
A: 0.56 µM (≈ 0.2 µg/mL)

Q: Which MIC does the source give for `Cc1cc(CCCCCCCCOc2ccc(C3=NCCO3)cc2)on1` here?
A: 3.92 µM (≈ 1.4 µg/mL)

Q: `CC[C@H]1COC(c2ccc(OCCCCCCCc3cc(C)no3)cc2)=N1` was tested. Which MIC did it give?
A: 0.023 µM (≈ 0.00852 µg/mL)

Q: `Cc1cc(CCCCCCCOc2ccc(C3=NC(C)(C)CO3)cc2)on1` was tested. Which MIC did it give?
A: 0.16 µM (≈ 0.0593 µg/mL)

Q: How did the MIC turn out when `CCc1cc(CCCCCOc2ccc(C3=NCCO3)cc2)on1` was run?
A: 0.43 µM (≈ 0.141 µg/mL)

Q: With `Cc1cc(CCCCCCCOc2ccc(C3=NCCO3)cc2Cl)on1` as the compound, how does the MIC read?
A: 1.06 µM (≈ 0.399 µg/mL)

Q: For `Cc1cc(CCCCCOc2ccc(C3=NCCO3)cc2Cl)on1`, which MIC is on record?
A: 2.41 µM (≈ 0.841 µg/mL)

Q: Which MIC does the source give for `Cc1cc(CCCCCCOc2ccc(C3=NCCO3)cc2Cl)on1` here?
A: 3.86 µM (≈ 1.4 µg/mL)

Q: For `Cc1cc(CCCCOc2ccc(C3=NCCO3)cc2Cl)on1`, which MIC is on record?
A: 9.2 µM (≈ 3.08 µg/mL)

Q: How did the MIC turn out when `Cc1cc(CCCCCCCOc2ccc(C3=NC(C)CO3)cc2)on1` (centres undefined) was run?
A: 0.05 µM (≈ 0.0178 µg/mL)

Q: Which MIC does the source give for `Cc1cc(CCCCCCCCOc2ccc(C3=NCCO3)cc2Cl)on1` here?
A: 14.3 µM (≈ 5.6 µg/mL)

What follows are compounds tested on rhinovirus B14 (assay: In vitro inhibitory activity against human rhinovirus-14 was determined). Details: Rhinovirus B.
Type: functional

Q: How did the MIC turn out when `Cc1cc(CCCCCOc2ccc(C3=NCCO3)cc2)on1` was run?
A: 1.27 µM (≈ 0.399 µg/mL)
